According to patent publication US20250381242A1 (INVAIO SCIENCES, INC., priority 2024, published 2025):
No end group written: not given here.

Experiments:
E. coli = assay: Bacterial growth inhibition by OD600 absorbance, E. coli; type: cell-based, E. coli (DH5-alpha); conditions: peptide 10 μM, 24 hours at 37° C., OD 600 nm
Procedure, shortened: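 Percent inhibition was calculated from initial and 24 h OD600 readings against DMSO (0.1%) and antibiotic controls. Cultures received 10 μM peptide and were incubated at 30° C. (X. citri) or 37° C. (E. coli).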

X. citri = assay: Bacterial growth inhibition by OD600 absorbance, X. citri; type: cell-based, X. citri subsp. citri (ATCC 49118); conditions: peptide 10 μM, 24 hours at 30° C., OD 600 nm
A. tumefaciens = conditions: 24 h, 10 μM
E. amylovora = conditions: 24 h, 10 μM
L. crescens = conditions: 10 μM

Row | Sequence | growth inhibition, E. coli (E. coli) [%] | growth inhibition, X. citri (X. citri) [%] | growth inhibition, A. tumefaciens (A. tumefaciens) [%] | growth inhibition, E. amylovora (E. amylovora) [%] | growth inhibition, L. crescens (L. crescens) [%]
1 | GIGKFLHSAKKFGKAFVGEIMNSKKKKKKKKKK [compound 5] | <90 | 100.00 | 98.68 | <90 | <90
2 | GLWSKIKTAGKSVAKAAAKAAVKAVTNAV [compound 28] | 100.00 | 100.00 | 100.00 | 100.00 | <90
3 | RKYVRFLHRWVKYFRAYL [compound 47] | 99.75 | <90 | <90 | <90 | <90
4 | AIWKKIIKKIIKSAKKIG [compound 78] | <90 | 100.00 | 100.00 | 100.00 | <90
5 | KKIGKKAAKKVIVKAIQAIV [compound 73] | <90 | <90 | <90 | 99.94 | <90
6 | FKRLEKLFKKIWNWK [compound 79] | <90 | 100.00 | 100.00 | 100.00 | <90
7 | GANALKKYFTILKKFFKLAW [compound 61] | 100.00 | <90 | <90 | <90 | <90
8 | GIGKLFLHAAKKFAKAFVAEKMNS [compound 36] | <90 | 100.00 | 100.00 | 100.00 | <90
9 | SWKSMAKKLKEYMEKLKQRA [compound 50] | <90 | <90 | 99.59 | 100.00 | <90
10 | GIKKFLKSAKKFVKAFK [compound 86] | <90 | <90 | 98.88 | 100.00 | <90
11 | KKLIKVFAKGFKKAKKLFKGIG [compound 52] | <90 | 100.00 | 100.00 | 100.00 | <90
12 | GFGTILKALAKIAGKVVKKLATKPGATYMLKENLK [compound 7] | 100.00 | 100.00 | 100.00 | 100.00 | <90
13 | KLLKKAGKLLKKAGKLLKKAG [compound 71] | <90 | 100.00 | 100.00 | 100.00 | <90
14 | KKFLHSAKKWLKAFVKLFKNW [compound 33] | 100.00 | 100.00 | 100.00 | <90 | 96.12
15 | KWKSFIKKLTKKFLHSAKKF [compound 49] | <90 | 100.00 | 100.00 | 100.00 | <90
16 | WIKIWKKIIKKWKK [compound 91] | <90 | <90 | 98.97 | 100.00 | <90
17 | GILKTIKSIASKLKRKAK [compound 85] | <90 | <90 | <90 | 99.65 | <90
18 | GMWSKLLGHLLR [compound 138] | <90 | <90 | 100.00 | 100.00 | <90
19 | WLNALLHHGYKRKFH [compound 93] | <90 | <90 | <90 | <90 | <90
20 | KWVKKWVKKWVK [compound 110] | <90 | 100.00 | <90 | 98.51 | <90
21 | RFRRLFRIRVRVLKKI [compound 72] | <90 | 100.00 | 100.00 | 100.00 | <90
22 | AWKETIRKYLKNEIKKKWRKAVIAW [compound 14] | 100.00 | 100.00 | 100.00 | 100.00 | <90
23 | QKRPRVRLSAWKKIWKPGIKKWIK [compound 21] | <90 | 100.00 | 96.97 | 100.00 | <90
24 | FFRNLWKGAKAAFRAGHAAWRA [compound 41] | <90 | 100.00 | 100.00 | 100.00 | <90
25 | GLWSKIKKAAKTAGKAALGFVNKMV [compound 35] | 100.00 | 100.00 | 100.00 | 100.00 | <90
26 | LRFLKKILKHLF [compound 120] | 100.00 | 100.00 | 100.00 | 100.00 | <90
27 | WLSKTAKKLWLSKTAKKLWLSKTAKKL [compound 15] | <90 | 96.25 | <90 | <90 | <90
28 | WFGHLYRGITKVVKHVHGLLKG [compound 40] | 100.00 | 100.00 | 100.00 | 100.00 | <90
29 | KNWKGIAGMAKKLLGKNWKLM [compound 59] | <90 | 100.00 | 99.61 | 100.00 | <90
30 | FRIRVRVKWKLFKKI [compound 81] | 100.00 | <90 | 100.00 | 100.00 | <90
